Data taken from PubChem BioAssay AID493223 (Johns Hopkins Ion Channel Center, 2011).
Active and inactive are the calls of the source.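 How the source made its calls: active means compound that raises the TRPC4 channel signal at some tested dose, with a fitted concentration curve; inactive means the rest.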

Biological target: Transient receptor potential cation channel C4 (TRPC4), mouse
Assay: TRPC4 positive allosteric modulators, dose response, cell-based, HEK293 TRPC4, Fluo-4 calcium flux (AID 493223)
Conditions: HEK293 TRPC4 cells, Fluo-4 calcium fluorescence ratio

Structure (SMILES) | EC50
CN(C)CCN(C)Cc1cc(Br)ccc1O | 1780 nM
CCN1CCN(Cc2cc(Br)ccc2O)CC1 | 860 nM

Same assay, conditions: HEK293 TRPC4 cells, Fluo-4 calcium fluorescence ratio; at 20 µM (top of the series)

Structure (SMILES) | fluorescence ratio, higher = potentiation
Oc1ccc(Br)cc1CN1CCN(c2ccncc2)CC1 | inactive
Oc1ccc(Cl)cc1CN1CCN(c2ncccn2)CC1 | inactive
Oc1ccc(F)cc1CN1CCN(CC2CCCO2)CC1 (stereo not drawn) | inactive
Oc1ccc(F)cc1CN1CCCC1 | inactive
Oc1ccc(Cl)cc1CN1CCOc2ccccc21 | inactive
Oc1ccc(F)cc1CN1CCC(N2CCOCC2)CC1 | inactive
Oc1ccc(F)cc1CN1CCN(c2ccncc2)CC1 | inactive
CC(C)(C)OC(=O)N1CCN(Cc2cc(Cl)ccc2O)CC1 | inactive
Oc1ccc(Br)cc1CN1CCCCC1 | inactive
Oc1ccc(Cl)cc1CN1CCN(c2ccc(F)cc2F)CC1 | inactive
Oc1ccc(F)cc1CN1CCN(c2ccccn2)CC1 | inactive
CN(C)CCN(C)Cc1cc(F)ccc1O | inactive
Oc1ccc(Br)cc1CN1CCOc2ccccc21 | inactive
COCCN(C)Cc1cc(Br)ccc1O | inactive
CC(C)(C)OC(=O)N1CCN(Cc2cc(F)ccc2O)CC1 | inactive
CC(C)(C)OC(=O)N1CCN(Cc2cc(Br)ccc2O)CC1 | inactive
CC1CC(C)CN(Cc2cc(Cl)ccc2O)C1 (stereo not drawn) | inactive
COc1ccc(N2CCN(Cc3cc(F)ccc3O)CC2)cc1 | inactive
Oc1ccc(Br)cc1CN1CCN(c2ccc(F)cc2F)CC1 | inactive
COc1ccc(N2CCN(Cc3cc(Cl)ccc3O)CC2)cc1 | inactive
Oc1ccc(F)cc1CN1CCN(c2ncccn2)CC1 | inactive
Oc1ccc(F)cc1CN1CCOc2ccccc21 | inactive
Oc1ccc(F)cc1CN1CCOCC1 | inactive
Oc1ccc(Br)cc1CN1CCN(CC2CCCO2)CC1 (stereo not drawn) | inactive
CC1CCN(Cc2cc(Cl)ccc2O)CC1 | inactive
COCCN(C)Cc1cc(F)ccc1O | inactive

Structure (SMILES) | fluorescence ratio, higher = potentiation
CCN(CC)Cc1cc(F)ccc1O | inactive
COc1ccc(N2CCN(Cc3cc(Br)ccc3O)CC2)cc1 | inactive
CN1CCN(Cc2cc(F)ccc2O)CC1 | inactive
Oc1ccc(Cl)cc1CN1CCC(N2CCOCC2)CC1 | inactive
CN1CCN(Cc2cc(Cl)ccc2O)CC1 | inactive
Oc1ccc(F)cc1CN1CCN(c2ccc(F)cc2F)CC1 | inactive
Oc1ccc(Br)cc1CN1CCCC1 | inactive
Oc1ccc(Br)cc1CN1CCC(N2CCOCC2)CC1 | inactive
CC1CC(C)CN(Cc2cc(F)ccc2O)C1 (stereo not drawn) | inactive
Oc1ccc(Cl)cc1CN1CCN(CC2CCCO2)CC1 (stereo not drawn) | inactive
Oc1ccc(Cl)cc1CN1CCN(c2ccncc2)CC1 | inactive
CC1CCN(Cc2cc(Br)ccc2O)CC1 | inactive
CN1CCN(Cc2cc(Br)ccc2O)CC1 | inactive
CC1CCN(Cc2cc(F)ccc2O)CC1 | inactive
Oc1ccc(Cl)cc1CN1CCCCC1 | inactive
CCN(CC)Cc1cc(Br)ccc1O | inactive
CC1CC(C)CN(Cc2cc(Br)ccc2O)C1 (stereo not drawn) | inactive
COCCN(C)Cc1cc(Cl)ccc1O | inactive
Oc1ccc(Cl)cc1CN1CCCC1 | inactive
Oc1ccc(F)cc1CN1CCCCC1 | inactive
Oc1ccc(Br)cc1CN1CCN(c2ncccn2)CC1 | inactive
Oc1ccc(Br)cc1CN1CCN(c2ccccn2)CC1 | inactive
CCN(CC)Cc1cc(Cl)ccc1O | inactive
Oc1ccc(Cl)cc1CN1CCN(c2ccccn2)CC1 | inactive
Oc1ccc(Br)cc1CN1CCOCC1 | inactive
